This experiment addresses T1, human 11β-HSD1 (Homo sapiens, UniProt P28845).
T1 construct: expressed in transfected cells; host or cells: CHO cells (microsomes)
The experiment can be described thus: Biological Test Example 1: inhibition of microsomal preparation of 11β-HSD1 (SPA). The class given is biochemical. The note with it: for inhibition at 0.1 µM: read-out: Average % inhibition at 100 nM; for IC50: microsomes from CHO cells overexpressing human 11β-HSD1; for Average % inhibition at 100 nM: 0.1 µM. Here is the method:
The inhibition of microsomal preparation of 11β-HSD1 by compounds of the invention was measured essentially as previously described (K. Solly, S. S. Mundt, H. J. Zokian, G. J. Ding, A. Hermanowski-Vosatka, B. Strulovici, and W. Zheng, High-Throughput Screening of 11-Beta-Hydroxysteroid Dehydrogenase Type 1 in Scintillation Proximity Assay Format. Assay Drug Dev Technol 3 (2005) 377-384). All reactions were carried out at room temperature in 96 well clear flexible PET Microbeta plates (PerkinElmer). The assay begins by dispensing 49 μl of substrate solution (50 mM HEPES, pH 7.4, 100 mM KCl, 5 mM NaCl, 2 mM MgCl2, 2 mM NADPH and 160 nM [^3H]cortisone (1 Ci/mmol)) and mixing in 1 μL of the test compounds in DMSO previously diluted in half-log increments (8 points) starting at 0.1 mM. After a 10 minute pre-incubation, 50 μL of enzyme solution containing microsomes isolated from CHO cells overexpressing human 11β-HSD1 (10-20 μg/ml of total protein) was added, and the plates were incubated for 90 minutes at room temperature. The reaction was stopped by adding 50 μl of the SPA beads suspension containing 10 μM 18β-glycyrrhetinic acid, 5 mg/ml protein A coated YSi SPA beads (GE Healthcare) and 3.3 μg/ml of anti-cortisol antibody (East Coast Biologics) in Superblock buffer (Bio-Rad). The plates were shaken for 120 minutes at room temperature, and the SPA signal corresponding to [^3H]cortisol was measured on a Microbeta plate reader.

Structures are written as SMILES. Where two headings read alike, the source gives them in different places. A value given as a limit tells only on which side of the number the result lay.

As a reminder, the inhibition is the change of the read-out against control, counted positive when it falls. As usually defined, the IC50 is the concentration that inhibits the measured activity by half.

T1 sequence (P28845 whole entry): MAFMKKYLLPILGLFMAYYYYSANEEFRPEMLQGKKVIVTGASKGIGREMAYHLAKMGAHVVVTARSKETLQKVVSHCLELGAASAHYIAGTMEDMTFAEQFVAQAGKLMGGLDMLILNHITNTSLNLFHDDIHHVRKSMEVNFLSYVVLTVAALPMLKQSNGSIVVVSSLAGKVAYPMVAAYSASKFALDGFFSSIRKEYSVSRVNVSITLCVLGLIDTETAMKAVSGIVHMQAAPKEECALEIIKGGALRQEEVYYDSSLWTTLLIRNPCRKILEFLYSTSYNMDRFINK

On to `C[C@@H](C1CCCCC1)N1CC[C@](CCCO)(c2ccccc2)NC1=O` [Example 15, (R)-1-((S)-1-cyclohexylethyl)-4-(3-hydroxypropyl)-4-phenyltetrahydropyrimidin-2(1H)-one], for which the inhibition at 0.1 µM (at 100 nM) amounted to 96.1%. For the same compound, for the setting “read-out: IC50 Range”, the IC50 is below 100 nM.

Regarding `C[C@@H](c1ccc(-c2ccc(F)cc2)cc1)N1CC[C@@](CC(O)CO)(c2ccc(F)cc2)NC1=O` (single isomer, unassigned) [Example 9 Isomer 3], the “Average % inhibition at 100 nM” value (at 100 nM) came to 38.5%. For the same compound, for the setting “read-out: IC50 Range”, the IC50 is below 100 nM.

Regarding `C[C@@H](c1ccc(-c2ccc(F)cc2)cc1)N1CC[C@](CC(O)CO)(c2ccc(F)cc2)NC1=O` (single isomer, unassigned) [Example 9 Isomer 1], where the note is “at 100 nM”, the inhibition at 0.1 µM worked out at 94.5%. Besides, the half-inhibitory concentration (IC50) (read-out: IC50 Range) was below 100 nM.

As for `C[C@@H](c1ccc(Br)cc1)N1CC[C@](CCCO)(c2ccc(F)cc2)NC1=O` [Example 18, (R)-1-((S)-1-(4-bromophenyl)ethyl)-4-(4-fluorophenyl)-4-(3-hydroxypropyl)tetrahydropyrimidin-2(1H)-one], the inhibition at 0.1 µM (at 100 nM) came to 97.5%. For the setting “read-out: IC50 Range”, the IC50 is below 100 nM.

With `C[C@@H](c1ccc(-c2ccc(F)cc2)cc1)N1CC[C@@](CCCO)(c2ccc(F)cc2)NC1=O` (single isomer, unassigned) [Example 10 Isomer 2], the inhibition at 0.1 µM (at 100 nM) turned out to be 54.2%. Moreover, the IC50 (read-out: IC50 Range) was below 100 nM.

As to `C[C@@H](c1ccc(Br)cc1)N1CC[C@](CC(C)(C)O)(c2ccccc2)NC1=O` [Example 20, (S)-1-((S)-1-(4-bromophenyl)ethyl)-4-(2-hydroxy-2-methylpropyl)-4-phenyltetrahydropyrimidin-2(1H)-one], where the note is “at 100 nM”, the inhibition at 0.1 µM amounted to 94.4%. Where the note is “read-out: IC50 Range”, the IC50 is below 100 nM.

Regarding `C[C@@H](c1ccc(-c2ccc(F)cc2F)cc1)N1CC[C@@](CCCO)(c2ccc(F)cc2)NC1=O` (single isomer, unassigned) [Example 7 Isomer 2], the inhibition at 0.1 µM (at 100 nM) amounted to 71%. Where the note is “read-out: IC50 Range”, the IC50 is below 100 nM.

Take `C[C@@H](c1ccc(-c2ccc(F)cc2F)cc1)N1CC[C@](CCCO)(c2ccc(F)cc2)NC1=O` (single isomer, unassigned) [Example 7 Isomer 1]: the inhibition at 0.1 µM (at 100 nM) amounted to 94.8%. For the same compound, the IC50 (read-out: IC50 Range) was below 100 nM.

For `C[C@@H](c1ccc(-c2ccc(F)cc2)cc1)N1CC[C@](CCCO)(c2ccccc2)NC1=O` (single isomer, unassigned) [Example 14 Isomer 1], the inhibition at 0.1 µM (at 100 nM) turned out to be 95.5%. The IC50 (read-out: IC50 Range) is below 100 nM.

Regarding `C=CC[C@@]1(c2ccc(F)cc2)CCN([C@@H](C)c2ccc(Br)cc2)C(=O)N1` (single isomer, unassigned) [Example 2 Isomer 2], the inhibition at 0.1 µM is 69.5%. Besides, the IC50 (IC50 Range) is below 100 nM.

For `C[C@@H](c1ccc(Br)cc1)N1CC[C@](CC(C)(C)C#N)(c2ccccc2)NC1=O` [Example 23, 3-((R)-1-((S)-1-(4-bromophenyl)ethyl)-2-oxo-4-phenylhexahydropyrimidin-4-yl)-2,2-dimethylpropanenitrile], for the setting “at 100 nM”, the inhibition at 0.1 µM worked out at 95.8%. Besides, the IC50 (read-out: IC50 Range) is below 100 nM.

In the case of `C[C@@H](c1ccc(-c2ccc(F)cc2)cc1)N1CC[C@](CCCO)(c2ccc(F)cc2)NC1=O` (single isomer, unassigned) [Example 10 Isomer 1], the inhibition at 0.1 µM (at 100 nM) came out at 102%. In addition, the IC50 (read-out: IC50 Range) was below 100 nM.

Consider `C[C@@H](c1ccc(-c2ccc(F)cc2F)cc1)N1CC[C@](CC(O)CO)(c2ccc(F)cc2)NC1=O` (single isomer, unassigned) [Example 8 Isomer 2], for which the “Average % inhibition at 100 nM” value (at 100 nM) came to 94.8%. Further, the IC50 (read-out: IC50 Range) was below 100 nM.

For `COc1ccc([C@H](C)N2CC[C@](CCCO)(c3ccc(F)cc3)NC2=O)cc1` [Example 16, (R)-4-(4-fluorophenyl)-4-(3-hydroxypropyl)-1-((S)-1-(4-methoxyphenyl)ethyl)tetrahydropyrimidin-2(1H)-one], the inhibition at 0.1 µM (at 100 nM) came to 96.1%. Also, the IC50 (read-out: IC50 Range) is below 100 nM.

On to `C[C@@H](c1ccc(Cl)cc1)N1CC[C@](CCCO)(c2ccc(F)cc2)NC1=O` [Example 13, 1-((1S)-1-(4-chlorophenyl)ethyl)-4-(4-fluorophenyl)-4-(3-hydroxypropyl)tetrahydropyrimidin-2(1H)-one], for which the inhibition at 0.1 µM (at 100 nM) came out at 96.1%. In addition, the IC50 (read-out: IC50 Range) is below 100 nM.

Under “IC50 Range”, `Cc1cccc(N2CC[C@](C)(c3ccccc3)NC2=O)c1` [Example 1, (R)-4-methyl-4-phenyl-1-m-tolyltetrahydropyrimidin-2(1H)-one] displayed an IC50 of 100 to 1000 nM. For the setting “read-out: Average % inhibition at 111.1 nM”, the inhibition at 0.1111 µM was found to be 49.4%.

As for `C[C@@H](c1ccc(-c2ccc(F)cc2)cc1)N1CC[C@@](CCCO)(c2ccccc2)NC1=O` (single isomer, unassigned) [Example 14 Isomer 2], where the note is “at 100 nM”, the inhibition at 0.1 µM worked out at 58%. Further, the IC50 (read-out: IC50 Range) was below 100 nM.

`C[C@@H](c1ccc(Br)cc1)N1CC[C@](CCCNS(C)(=O)=O)(c2ccc(F)cc2)NC1=O` [Example 19, N-(3-((R)-1-((S)-1-(4-bromophenyl)ethyl)-4-(4-fluorophenyl)-2-oxohexahydropyrimidin-4-yl)propyl)methanesulfonamide]: the inhibition at 0.1 µM came to 96%. In addition, under “read-out: IC50 Range”, the IC50 was below 100 nM.

Take `C[C@@H](c1ccc(Br)cc1)N1CC[C@](CCCO)(c2ccc(F)cc2)N(C)C1=O` (single isomer, unassigned) [Example 11 Isomer 1]: for the setting “at 100 nM”, the inhibition at 0.1 µM worked out at 64.4%. The IC50 (read-out: IC50 Range) was below 100 nM.

Consider `C[C@@H](c1ccc(Cl)cc1)N1CC[C@](CCO)(c2ccc(F)cc2)NC1=O` [Example 12, (S)-1-((S)-1-(4-chlorophenyl)ethyl)-4-(4-fluorophenyl)-4-(2-hydroxyethyl)tetrahydropyrimidin-2(1H)-one], for which the inhibition at 0.1 µM (at 100 nM) came out at 96.9%. Moreover, the IC50 (read-out: IC50 Range) was below 100 nM.

On to `C[C@@H](c1ccc(-c2ccc(F)cc2)cc1)N1CC[C@@](CC(O)CO)(c2ccc(F)cc2)NC1=O` (single isomer, unassigned) [Example 9 Isomer 4], for which the “Average % inhibition at 100 nM” value (at 100 nM) is on record as 16.5%. Also, the half-maximal inhibitory concentration (IC50) (read-out: IC50 Range) was above 100 nM.

As for `C[C@@H](c1ccc(-c2ccc(F)cc2)cc1)N1CC[C@](CC(O)CO)(c2ccc(F)cc2)NC1=O` (single isomer, unassigned) [Example 9 Isomer 2], under “at 100 nM”, the “Average % inhibition at 100 nM” value was 93.5%. For the same compound, under “read-out: IC50 Range”, the IC50 is below 100 nM.

For `C[C@@H](C1CCCCC1)N1CC[C@](CCCO)(c2ccccc2)N(C)C1=O` [Example 22, (R)-1-((S)-1-cyclohexylethyl)-4-(3-hydroxypropyl)-3-methyl-4-phenyltetrahydropyrimidin-2(1H)-one], for the setting “at 100 nM”, the inhibition at 0.1 µM is 30%. The IC50 (read-out: IC50 Range) is above 100 nM.

Regarding `C[C@@H](c1ccc(-c2ccc(F)cc2F)cc1)N1CC[C@](CC(O)CO)(c2ccc(F)cc2)NC1=O` (single isomer, unassigned) [Example 8 Isomer 1], the inhibition at 0.1 µM (at 100 nM) was found to be 96.3%. For the same compound, where the note is “read-out: IC50 Range”, the IC50 was below 100 nM.

As to `C=CC[C@]1(c2ccc(F)cc2)CCN([C@@H](C)c2ccc(Br)cc2)C(=O)N1C` (single isomer, unassigned) [Example 3 Isomer 1], the inhibition at 0.1 µM was found to be 51.2%. Moreover, the IC50 (read-out: IC50 Range) was below 100 nM.

Regarding `C[C@@H](c1ccc(-c2ccc(F)cc2F)cc1)N1CC[C@](CCO)(c2ccc(F)cc2)NC1=O` (single isomer, unassigned) [Example 6 Isomer 1], under “at 100 nM”, the inhibition at 0.1 µM worked out at 97.2%. Also, the IC50 (read-out: IC50 Range) is below 100 nM.

Turning to `C[C@@H](c1ccc(Br)cc1)N1CC[C@@](CCCO)(c2ccc(F)cc2)N(C)C1=O` (single isomer, unassigned) [Example 11 Isomer 2], the inhibition at 0.1 µM (at 100 nM) was 26.1%. Also, the IC50 (read-out: IC50 Range) was above 100 nM.

`C[C@@H](c1ccc(-c2ccc(F)cc2F)cc1)N1CC[C@@](CCO)(c2ccc(F)cc2)NC1=O` (single isomer, unassigned) [Example 6 Isomer 2]: the inhibition at 0.1 µM (at 100 nM) is 47.7%. For the same compound, the IC50 (read-out: IC50 Range) is below 100 nM.

`C=CC[C@@]1(c2ccc(F)cc2)CCN([C@@H](C)c2ccc(Br)cc2)C(=O)N1C` (single isomer, unassigned) [Example 3 Isomer 2]: the inhibition at 0.1 µM amounted to 60.5%. For the same compound, the IC50 (read-out: IC50 Range) is below 100 nM.

For `C[C@@H](c1ccc(-c2ccn(C)c(=O)c2)cc1)N1CC[C@](CC(C)(C)O)(c2ccccc2)NC1=O` [Example 21, (S)-4-(2-hydroxy-2-methylpropyl)-1-((S)-1-(4-(1-methyl-2-oxo-1,2-dihydropyridin-4-yl)phenyl)ethyl)-4-phenyltetrahydropyrimidin-2(1H)-one], the inhibition at 0.1 µM (at 100 nM) was 93.9%. Further, the IC50 (read-out: IC50 Range) was below 100 nM.

In the case of `COc1ccc([C@H](C)N2CC[C@](CCO)(c3ccc(F)cc3)NC2=O)cc1` [Example 17, (S)-4-(4-fluorophenyl)-4-(2-hydroxyethyl)-1-((S)-1-(4-methoxyphenyl)ethyl)tetrahydropyrimidin-2(1H)-one], the inhibition at 0.1 µM (at 100 nM) was found to be 94.3%. For the same compound, for the setting “read-out: IC50 Range”, the IC50 is below 100 nM.

The values are drawn from patent US9079861B2, “Cyclic urea inhibitors of 11β-hydroxysteroid dehydrogenase 1” (Vitae Pharmaceuticals, Inc., priority 2007, dated 2015).
